# Test results as given in PMC8291587, “Guanidine Derivatives: How Simple Structural Modification of Histamine H3R Antagonists Has Led to the Discovery of Potent Muscarinic M2R/M4R Antagonists” (ACS Chemical Neuroscience, 2021).
# What was measured:
# H3R = H3R agonism check with thioperamide on electrically stimulated guinea pig ileum; details: thioperamide as H3R antagonist
# Protocol: A standard ex vivo assay based on the relaxant response of histamine H3R agonists to electrically driven guinea pig ileum was used to test the influence of ADS compounds on the reduction of electrically evoked tissue contraction. […] The −log EC50 value for RAMH and ADS compounds were evaluated. […] Following this, we decided to evaluate the ADS series as potential M2R/M3R ligands on the isolated guinea pig ileum.
# Male guinea pigs, weighing 300–400 g, were euthanized by a blow to the neck. A 20–30 cm length of the distal ileum, apart from the terminal 5 cm, was rapidly removed and placed in phosphate buffer at room temperature (pH 7.4) containing (mM) NaCl (136.9), KCl (2.6), KH2PO4 (1.47), Na2HPO4 (9.58), and indomethacin (1 × 10^–6 mol/L)). The intraluminal content was rinsed, and the isolated intestine was cut into 1.5–2 cm segments. The preparations were mounted between two platinum electrodes isotonically in a 20 mL organ bath filled with Krebs buffer: composition (mM) NaCl (118), KCl (5.6), MgSO4 (1.18), CaCl2 (2.5), NaH2PO4·H2O (1.28), NaHCO3 (25), glucose (5.55), and indomethacin (3 × 10^–7 mol/L). […] Cumulative concentration–response curve was determined to RAMH or tested agonist (10 nM to 10 mM) at increasing concentrations spaced by 3- or 3.3-fold. The agonist potency is expressed as pD2 value (−log EC50) ± sem.
# M3R = biological target: T1, M3R (Homo sapiens, UniProt P20309); assay: Intracellular Ca2+ measurement, functional response to ACh, M3R in CHO cells; assay type: cell-based; details: antagonism of ACh-induced Ca2+ response, read-out: pKB M3R (converted)
# T1 construct: host or cells: CHO cells (whole cells, Fura-2)
# Protocol: (§1) Linear Schild plot indicates the competitive interaction (slope = 1) of the tested compound (Supporting Information, Figure S55).
# (§2) Intracellular Ca^2+ level was taken as a functional response to ACh. Black 96-well plates were seeded with 12,000 CHO cells per well. After two days of cultivation in DMEM at 37 °C under a humidified atmosphere containing 5% CO2, cells were washed with Krebs-HEPES buffer (KHB) (composition: (mM) NaCl (138), KCl (4), CaCl2 (1.3), MgCl2 (1), NaH2PO4 (1.2), HEPES (20), glucose (10), pH adjusted to 7.4) KHB was loaded with 5 μM Fura-2 (Sigma-Aldrich) for 1 h. The cells were washed with fresh KHB and preincubated with tested compounds for 1 h. Then plates were placed in a Cytation 3 reader. The first basal level (fluorescence dual excitation at 340 and 380 nm, emission at 510 nm) was measured. Following this, ACh was added to the desired concentration (ranging from 10 pM to 100 μM) by instrument injectors, and fluorescence was measured immediately. Intracellular Ca^2+ level was calculated as a ratio of 340 to 380 nm excitation fluorescence. […]
# (§3) The intracellular level of calcium at various concentrations of ACh was measured. […] From a series of EC50 values of apparent inhibition constant KB was calculated by fitting eq 5 to dose ratio (DR) induced by tested compound at a given concentration: [drawing 5] […]
# muscarinic M2R = biological target: T2, muscarinic M2R (Homo sapiens, UniProt P08172); assay: Intracellular Ca2+ measurement, functional response to ACh, M2R in CHO cells; assay type: cell-based
# T2 construct: host or cells: CHO cells (whole cells, Fura-2)
# T2 sequence (P08172 1-466): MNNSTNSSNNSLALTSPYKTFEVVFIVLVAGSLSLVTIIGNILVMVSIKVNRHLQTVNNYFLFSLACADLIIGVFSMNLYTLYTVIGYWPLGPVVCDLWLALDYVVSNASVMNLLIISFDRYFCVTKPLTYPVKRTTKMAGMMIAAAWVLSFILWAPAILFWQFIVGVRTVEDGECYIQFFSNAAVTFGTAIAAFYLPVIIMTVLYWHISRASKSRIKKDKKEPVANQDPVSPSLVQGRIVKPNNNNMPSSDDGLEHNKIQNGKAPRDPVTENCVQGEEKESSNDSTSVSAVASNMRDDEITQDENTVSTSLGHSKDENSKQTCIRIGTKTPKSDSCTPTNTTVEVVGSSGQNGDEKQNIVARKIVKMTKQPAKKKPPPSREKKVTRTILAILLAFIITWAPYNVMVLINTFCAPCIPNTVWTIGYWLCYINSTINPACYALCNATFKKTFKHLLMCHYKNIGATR
# Protocol: as §1, §2, §3
# T1 sequence (P20309 whole entry): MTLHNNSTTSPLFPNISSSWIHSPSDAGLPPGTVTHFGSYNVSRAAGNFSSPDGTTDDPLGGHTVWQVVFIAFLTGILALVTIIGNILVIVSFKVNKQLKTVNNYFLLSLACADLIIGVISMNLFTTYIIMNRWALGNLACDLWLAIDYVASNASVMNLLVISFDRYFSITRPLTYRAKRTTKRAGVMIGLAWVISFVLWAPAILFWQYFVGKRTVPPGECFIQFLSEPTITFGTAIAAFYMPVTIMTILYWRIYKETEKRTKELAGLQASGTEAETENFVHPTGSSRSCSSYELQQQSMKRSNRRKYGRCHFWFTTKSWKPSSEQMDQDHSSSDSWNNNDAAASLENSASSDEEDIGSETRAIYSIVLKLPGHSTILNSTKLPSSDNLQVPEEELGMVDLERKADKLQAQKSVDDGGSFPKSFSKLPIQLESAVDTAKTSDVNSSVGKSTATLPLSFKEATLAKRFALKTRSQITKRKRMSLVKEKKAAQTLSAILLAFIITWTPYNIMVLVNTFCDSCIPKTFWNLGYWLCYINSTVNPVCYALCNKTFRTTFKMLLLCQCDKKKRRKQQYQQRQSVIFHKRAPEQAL
smiles,measurement,setting,value
"N=C(N)N(CCCCN1CCN(C[C@H]2CC[C@@H](COc3ccccc3)CC2)CC1)Cc1ccccc1 [ADS10227, 1-{4-{4-{[4-(phenoxymethyl)cyclohexyl]methyl}piperazin-1-yl}but-1-yl}-1-(benzyl)guanidine]",shift of the concentration–response curve with or without thioperamide (H3R agonism),H3R,no shifts
same,Kb,M3R,37.2 nM
same,Kb,"muscarinic M2R; antagonism of ACh-induced Ca2+ response, CHO cells, read-out: pKB M2R (converted)",6.76 nM
same,Schild plot slope,"muscarinic M2R; linear Schild plot, competitive interaction, M2R and M3R Ca2+ assays",1
